Key:
[1] = molecular target: full-length MALT1 protein (Strep-MALT1(1-824)-His) (Homo sapiens (Human), UniProt Q9UDY8); test: MALT1 Biochemical Protease Assay (Ac-LRSR-AMC substrate); settings: 10 nM FL MALT1, 200 μM Ac-LRSR-AMC, 4 h at RT; read-out: MALT1_Biochemical activity (Ac-LRSR-amc) IC50
In short: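 Full-length MALT1 pre-incubated with compounds (30 μM to 0.5 nM, 11 threefold steps) for 50 min at RT. After Ac-LRSR-AMC was added, the reaction ran 4 h at RT and AMC fluorescence was read. IC50 and Hill slope from curve fitting against no-enzyme and no-compound controls.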

Jurkat cells = test: PMA Induced IL2 Production In Jurkat Cells; assay type: cell-based; settings: Homo sapiens, PMA/Ionomycin, 20 h, read-out: IL-2 prod h Jurkat PMA IC50
Procedure: Jurkat cells were maintained in complete RPMI 1640 media containing 10% fetal bovine serum, 10 mM HEPES, 100 units/mL of penicillin and 100 μg/mL of streptomycin. Prior to the assay, compounds were made 2- to 4-fold serial dilutions in DMSO. A volume of 10 μL of DMSO-diluted compound in each well were further diluted into 240 μL RPMI1640 complete media. Jurkat cells were harvested by centrifuge at 1200 RPM for 5 min, washed one time with RPMI 1640 media, and suspended in fresh complete RPMI 1640 media at concentration of 1.25×10^6 cell/mL. A volume of 160 uL of Jurkat cells (2×10^5 cells) were seeded in each well of 96 well plate-bottom plates. A volume of 20 uL of diluted compound in RMPI 1640 complete media were added to each well and incubated with Jurkat cells for 30 min at 37° C. in a 5% CO2 incubator. A volume 20 μL of diluted PMA/Ionomycin (81 nM/1.3 uM respectively, ebioscience, catalog number 00-4970-93) in RMPI 1640 complete media were added to each well. After incubation at 37° C. in 5% CO2 incubator for 20 h, supernatants were harvested. IL-2 concentration was assessed by ELISA (IL2 Duoset, R&D Systems, catalog number DY202). Colorimetric intensity at 450 nm was read by Spectramax plate reader and analyzed with Softmax Pro software. Cell viability was assessed by Cell Titer Glo kit (Promega, catalog number G7571) using Victor Luminescence reader (Victor 3V 4202938 by Perkin Elmer).

[2] = system: IL6 secretion by TMD8 ABC-DLBCL cells; test: Human IL6 Mesoscale assay (TMD-8); assay type: cell-based; settings: Homo sapiens, TMD8; TMD-8 cells, 24 h
In short: (§1)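 After 24 h at 37 °C with test compounds (15 μM down to 58.6 nM, 9 twofold steps, 0.3% DMSO), IL6 and IL10 secreted by 100,000 OCI-LY3 or TMD8 cells per well were measured in supernatants with a Mesoscale immunoassay. Data were scaled between DMSO wells (high) and RN486 treatment (low).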

[3] = system: IL10 secretion by TMD8 ABC-DLBCL cells; test: Human IL10 Mesoscale assay (TMD-8); assay type: cell-based; settings: Homo sapiens, TMD8; TMD-8 cells, 24 h
In short: as §1

OCI-Ly3 cells = test: 4-day proliferation assay, OCI-Ly3; assay type: cell-based, human; settings: Homo sapiens, 96 h, 4 days incubation, CellTiterGLO, read-out: Anti-proliferation: OCI-LY-3 IC50
In short: (§2)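 TMD8 and OCI-Ly3 cells were seeded at 10,000 per well and grown 4 days at 37° C, 5% CO2 without beta-mercaptoethanol. Viability was read by CellTiter-Glo luminescence. IC50 and Hill slope were fitted relative to the low control median.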

TMD8 cells = test: 4-day proliferation assay, TMD8; assay type: cell-based; settings: Homo sapiens, 96 h, 4 days incubation, CellTiterGLO, read-out: Anti-proliferation: TMD-8 IC50
In short: as §2

Sequence of full-length MALT1 protein (Strep-MALT1(1-824)-His) (Q9UDY8 whole entry): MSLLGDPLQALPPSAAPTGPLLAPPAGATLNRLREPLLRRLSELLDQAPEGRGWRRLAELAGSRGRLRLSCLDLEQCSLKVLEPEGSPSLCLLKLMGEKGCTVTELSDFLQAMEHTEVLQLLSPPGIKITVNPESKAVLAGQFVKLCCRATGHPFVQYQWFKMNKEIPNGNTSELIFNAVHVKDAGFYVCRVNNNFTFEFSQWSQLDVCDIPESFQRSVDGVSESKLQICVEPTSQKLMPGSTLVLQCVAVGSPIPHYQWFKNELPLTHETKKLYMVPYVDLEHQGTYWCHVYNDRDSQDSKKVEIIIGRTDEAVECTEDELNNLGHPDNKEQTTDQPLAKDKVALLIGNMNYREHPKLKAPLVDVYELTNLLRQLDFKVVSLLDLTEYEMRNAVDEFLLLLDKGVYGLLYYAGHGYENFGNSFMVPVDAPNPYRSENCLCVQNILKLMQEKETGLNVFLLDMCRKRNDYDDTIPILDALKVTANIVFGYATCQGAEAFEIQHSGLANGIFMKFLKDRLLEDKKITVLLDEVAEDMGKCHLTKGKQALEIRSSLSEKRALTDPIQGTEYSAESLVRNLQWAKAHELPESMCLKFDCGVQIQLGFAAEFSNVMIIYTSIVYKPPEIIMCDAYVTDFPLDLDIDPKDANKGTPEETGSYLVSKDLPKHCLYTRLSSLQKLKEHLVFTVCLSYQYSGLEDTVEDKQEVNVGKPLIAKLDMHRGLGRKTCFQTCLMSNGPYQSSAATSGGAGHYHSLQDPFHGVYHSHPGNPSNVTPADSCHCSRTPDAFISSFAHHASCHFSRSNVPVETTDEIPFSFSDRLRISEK

| SMILES | IC50 [1] [nM] | IC50 (Jurkat cells) [nM] | IC50 [2] [nM] | IC50 [3] [nM] | IC50 (OCI-Ly3 cells) [nM] | IC50 (TMD8 cells) [nM] |
| --- | --- | --- | --- | --- | --- | --- |
| O=C(Nc1cncc(C(F)(F)F)c1)c1cnn(-c2cccc3ccccc23)c1C(F)(F)F [Cpd 4, 1-(Naphthalen-1-yl)-5-(trifluoromethyl)-N-(5-(trifluoromethyl)pyridin-3-yl)-1H-pyrazole-4-carboxamide] | 200 | 360 | 339 | 214 | ~500 | ~15800 |
| O=C(Nc1cnc(-n2nccn2)c(Cl)c1)c1cnn(-c2cncc3ccccc23)c1C(F)(F)F [Cpd 32, N-(5-chloro-6-(2H-1,2,3-triazol-2-yl)pyridin-3-yl)-1-(isoquinolin-4-yl)-5-(trifluoromethyl)-1H-pyrazole-4-carboxamide] | 19 | 2 | 17 | 14 | 110 | 4900 |
| O=C(Nc1cnc(-n2nccn2)c(Cl)c1)c1cnn(-c2cccc3occc23)c1C(F)(F)F [Cpd 34, 1-(Benzofuran-4-yl)-N-(5-chloro-6-(2H-1,2,3-triazol-2-yl)pyridin-3-yl)-5-(trifluoromethyl)-1H-pyrazole-4-carboxamide] | 9 | 16 | ~11 | 7 | ~220 | ~12000 |
| Cc1c(C(=O)Nc2cnc(-n3nccn3)c(Cl)c2)cnn1-c1cccc2ncccc12 [Cpd 39, N-(5-Chloro-6-(2H-1,2,3-triazol-2-yl)pyridin-3-yl)-5-methyl-1-(quinolin-5-yl)-1H-pyrazole-4-carboxamide] | 759 | 1970 | 1950 | 955 | ~1120 | 14400 |
| COc1ncc(NC(=O)c2cnn(-c3cncc4ccccc34)c2C(F)(F)F)cc1C#N [Cpd 24, N-(5-cyano-6-methoxypyridin-3-yl)-1-(isoquinolin-4-yl)-5-(trifluoromethyl)-1H-pyrazole-4-carboxamide] | 74 | 740 | 93 | 129 | ~1950 | ~10000 |
| Cc1ccc2cncc(-n3ncc(C(=O)Nc4cnc(-n5nccn5)c(Cl)c4)c3C(F)(F)F)c2c1 [Cpd 36, N-(5-Chloro-6-(2H-1,2,3-triazol-2-yl)pyridin-3-yl)-1-(6-methylisoquinolin-4-yl)-5-(trifluoromethyl)-1H-pyrazole-4-carboxamide] | 63 | 270 | 135 | 141 | 1910 | 7940 |
| COC(C)c1c(C(=O)Nc2cnc(-n3nccn3)c(Cl)c2)cnn1-c1cccc2ncccc12 (stereo not drawn) [Cpd 35, N-(5-Chloro-6-(2H-1,2,3-triazol-2-yl)pyridin-3-yl)-5-(1-methoxyethyl)-1-(quinolin-5-yl)-1H-pyrazole-4-carboxamide] | 813 | 3240 | 6030 | 2880 | 10700 | 11000 |
| O=C(Nc1cnc(-n2nccn2)c(Cl)c1)c1cnn(-c2cccc3ccccc23)c1C(F)(F)F [Cpd 2, N-(5-Chloro-6-(2H-1,2,3-triazol-2-yl)pyridin-3-yl)-1-(naphthalen-1-yl)-5-(trifluoromethyl)-1H-pyrazole-4-carboxamide] | 12 | 59 | 52 | 28 | 420 | 13800 |

Second part, led by results:

| IC50 [1] [nM] | IC50 (Jurkat cells) [nM] | IC50 [2] [nM] | IC50 [3] [nM] | IC50 (OCI-Ly3 cells) [nM] | SMILES | IC50 (TMD8 cells) [nM] |
| --- | --- | --- | --- | --- | --- | --- |
| 275 | 370 | 110 | 269 | 460 | Cc1ncnn1-c1ncc(NC(=O)c2cnn(-c3cncc4ccccc34)c2C(F)(F)F)cc1Cl [Cpd 54, N-(5-Chloro-6-(5-methyl-1H-1,2,4-triazol-1-yl)pyridin-3-yl)-1-(isoquinolin-4-yl)-5-(trifluoromethyl)-1H-pyrazole-4-carboxamide] | 8710 |
| 155 | 18 | ~83 | 76 | 410 | N#Cc1ncc(NC(=O)c2cnn(-c3cncc4ccccc34)c2C(F)(F)F)cc1C(F)(F)F [Cpd 49, N-(6-cyano-5-(trifluoromethyl)pyridin-3-yl)-1-(isoquinolin-4-yl)-5-(trifluoromethyl)-1H-pyrazole-4-carboxamide] | 5010 |
| 11 | 9 | ~48 | ~10 | ~190 | N#Cc1cc(NC(=O)c2cnn(-c3cncc4ccccc34)c2C(F)(F)F)cnc1-n1nccn1 [Cpd 47, N-(5-cyano-6-(2H-1,2,3-triazol-2-yl)pyridin-3-yl)-1-(isoquinolin-4-yl)-5-(trifluoromethyl)-1H-pyrazole-4-carboxamide] | 8130 |
| 631 | 450 | ~830 | ~2140 | 300 | CN1CCN(C(=O)c2ncc(NC(=O)c3cnn(-c4cncc5ccccc45)c3C(F)(F)F)cc2Cl)CC1 [Cpd 48, N-(5-chloro-6-(4-methylpiperazine-1-carbonyl)pyridin-3-yl)-1-(isoquinolin-4-yl)-5-(trifluoromethyl)-1H-pyrazole-4-carboxamide] | 16200 |
| 162 | 11 | 117 | ~110 | 560 | O=C(Nc1cnc(N2CCCS2(=O)=O)c(Cl)c1)c1cnn(-c2cncc3ccccc23)c1C(F)(F)F [Cpd 42, N-(5-Chloro-6-(1,1-dioxidoisothiazolidin-2-yl)pyridin-3-yl)-1-(isoquinolin-4-yl)-5-(trifluoromethyl)-1H-pyrazole-4-carboxamide] | 6170 |
| 35 | 130 | 79 | 91 | 210 | Cn1ccc(-c2ncc(NC(=O)c3cnn(-c4cncc5ccccc45)c3C(F)(F)F)cc2Cl)n1 [Cpd 52, N-(5-chloro-6-(1-methyl-1H-pyrazol-3-yl)pyridin-3-yl)-1-(isoquinolin-4-yl)-5-(trifluoromethyl)-1H-pyrazole-4-carboxamide] | 5010 |
| 20 | 31 | 107 | 47 | 90 | O=C(Nc1cnc(-c2ncco2)c(Cl)c1)c1cnn(-c2cncc3ccccc23)c1C(F)(F)F [Cpd 50, N-(5-Chloro-6-(oxazol-2-yl)pyridin-3-yl)-1-(isoquinolin-4-yl)-5-(trifluoromethyl)-1H-pyrazole-4-carboxamide] | 7080 |
| 48 | 95 | 30 | 35 | 150 | O=C(Nc1cnc(-n2nccn2)c(Cl)c1)c1cnn(-c2ccc(F)c3ncccc23)c1C(F)(F)F [Cpd 40, N-(5-Chloro-6-(2H-1,2,3-triazol-2-yl)pyridin-3-yl)-1-(8-fluoroquinolin-5-yl)-5-(trifluoromethyl)-1H-pyrazole-4-carboxamide] | 6170 |

From patent publication US10954214B2 (Janssen Pharmaceutica NV, priority 2016, dated 2021)
